Reference: PubChem BioAssay (NCI)
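In this assay, cells in 96-well plates receive the compound at five concentrations for 48 hours. Endpoints are linearly interpolated between the surrounding concentrations. TGI marks complete inhibition of growth.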

Tests used:
Assay in all cases: NCI-60 cell line screen, 48 h
[1] = tested on: 786-0 renal
[2] = tested on: ACHN renal
[3] = tested on: HCC-2998 colon
[4] = tested on: IGROV1 ovarian
[5] = tested on: MCF7 breast
[6] = tested on: NCI-H226 lung
[7] = tested on: NCI-H460 lung
[8] = tested on: NCI-H522 lung
[9] = tested on: OVCAR-8 ovarian
[10] = tested on: SW-620 colon
[11] = tested on: T-47D breast
[12] = tested on: TK-10 renal

Measured: TGI

Cc1cccc(N(CCC#N)S(=O)(=O)c2ccccc2)c1
> 100 µM: all assays above
